Measurements reported in US20260015344A1, “PAN-KRAS INHIBITORS” (Mirati Therapeutics, Inc., priority 2022, published 2026).

Columns and labels:
KRas^G12S = target: T1, KRas^G12S (Homo sapiens, UniProt P01116, G12S); test: KRas Binding Assay (TR-FRET displacement), KRas G12S; details: TR-FRET tracer displacement
T1 construct: corresponding to amino acids 1-169, produced at Accelegan Inc; biotin (biotinylated); purchased Accelegan Inc
Protocol: (§1) This Example illustrates that exemplary compounds of the present invention bind to KRas and are capable of displacing a labeled tracer ligand occupying the KRas binding site. KRas^WT, KRas^G12A, KRas^G12C, KRas^G12D, KRas^G12R, KRas^G12S, KRas^G12V, KRas^G13D, or KRas^Q61H was used in the assay.
(§2) The ability of a compound to bind to KRas was measured using a TR-FRET displacement assay. Biotinylated KRas (corresponding to amino acids 1-169, produced at Accelegan Inc.) was incubated with custom made Cy5 labelled tracer, terbium streptavidin (Cisbio Inc.) and compound (1% DMSO final) in buffer (50 mM HEPES, pH 7.5, 5 mM MgCl2, 0.005% Tween-20 and 1 mM DTT). After a 60-minute incubation at room temperature, the reaction was measured using a BMG LABTECH CLARIO star Plus via TR-FRET. […] The POC values were fit to a 4-parameter IC50 equation and the IC50 value reported.

[1] = tested on: KRas-mediated Phosphorylation of ERK in H2009 cells; test: HTRF pERK assay, H2009 cells; assay type: cell-based; details: Homo sapiens, NCI-H2009; H2009 cells by column count (c8); may be PSN1; read-out: Inhibition (HTRF IC50 nM) of KRas-mediated Phosphorylation of ERK, H2009
[2] = tested on: KRas-mediated Phosphorylation of ERK in H727 cells; test: HTRF pERK assay, H727 cells; assay type: cell-based; details: Homo sapiens, NCI-H727, 3 hrs compound incubation, read-out: Inhibition (HTRF IC50 nM) of KRas-mediated Phosphorylation of ERK, H727
Protocol: (§3) • Day 1: Seed 6,000 cells/well-25 μl/well in 384-well white solid bottom plate; RPM1_10% FBS.
(§4) • 1. To harvest cells from flask using 0.05% Trypsin/EDTA solution. Add 10 mL of media to stop trypsinizing. Pipette the cells into a conical bottom 50 mL centrifuge tube and centrifuge 5 min×1000 rpm. • 2. Re-suspend the cell pellet in media, take a cell count, and then adjust the cell density using fresh media. • 3. Seed 6,000 cells into cell culture plate with 50 μL media. The • 4. Incubate cell plate overnight in a 37° C., 5% CO2 incubator.
(§5) • 1. Use Tecan to complete the compound addition. Compounds start from 10 uM top, 3-fold dilution, and 10 doses. The final DMSO concentration is 0.8%. Dispensed 0.2 uM Trametinib as Min control. • 2. Incubate cell plate for 3 hrs in the incubator. Detection with Cisbio pERK HTRF Kit • 1. Dilute 1 volume of 4× lysis buffer with 3 volumes of deionized water. Then, add 100× the blocking reagent. Keep lysis buffer on the ice. • 2. At the end of the compound treatment, flick-off the media. • 3. Add 35 μL of lysis buffer per well using a Multidrop Combi. Then place on a plate agitator shaking at 300 rpm at 4° C. for 40 mins. • 4. Make up the HTRF antibody buffer. For each assay plate, mix 50 μL of d2-conjugate antibody with 950 μL of detection buffer. Similarly, mix 50 μL of Cryptate antibody with 950 μL of detection buffer. Then mix the two diluted antibodies together. • 5. Dispense 3.4 μL the antibody buffer to wells of an empty assay plate. Seal the plate and centrifuge plate 30 sec×1000 rpm. • 6. At the end of the 4° C. lysis, centrifuge the lysate plates 3 mins×1500 rpm. • 7. Use the Bravo to transfer 13.6 μL of lysate from cell culture plate to assay plate. Then incubate assay plate for 2 hrs at room temperature. • 8. At the end of incubation, read plate on the Envision after centrifuging plate 30 sec×1000 rpm.

KRas^Q61H = target: T2, KRas^Q61H (Homo sapiens, UniProt P01116, Q61H); test: KRas Binding Assay (TR-FRET displacement), KRas Q61H; details: TR-FRET tracer displacement
T2 construct: corresponding to amino acids 1-169, produced at Accelegan Inc; biotin (biotinylated); purchased Accelegan Inc
T2 sequence (P01116 1-169 isoform P01116-2 Q61H): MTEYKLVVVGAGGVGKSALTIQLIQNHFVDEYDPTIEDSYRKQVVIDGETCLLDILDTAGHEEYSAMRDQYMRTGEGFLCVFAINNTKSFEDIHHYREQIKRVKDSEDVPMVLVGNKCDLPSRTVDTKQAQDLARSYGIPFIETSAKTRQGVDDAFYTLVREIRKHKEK
Protocol: as §1, §2

KRas^G13D = target: T3, KRas^G13D (Homo sapiens, UniProt P01116, G13D); test: KRas Binding Assay (TR-FRET displacement), KRas G13D; details: TR-FRET tracer displacement
T3 construct: corresponding to amino acids 1-169, produced at Accelegan Inc; biotin (biotinylated); purchased Accelegan Inc
T3 sequence (P01116 1-169 isoform P01116-2 G13D): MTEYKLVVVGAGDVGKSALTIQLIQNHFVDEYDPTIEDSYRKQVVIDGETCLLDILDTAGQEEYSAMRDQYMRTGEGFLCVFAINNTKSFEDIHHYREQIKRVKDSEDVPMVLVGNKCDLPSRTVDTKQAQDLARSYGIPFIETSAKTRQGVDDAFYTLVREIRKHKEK
Protocol: as §1, §2

KRas^G12A = target: T4, KRas^G12A (Homo sapiens, UniProt P01116, G12A); test: KRas Binding Assay (TR-FRET displacement), KRas G12A; details: TR-FRET tracer displacement
T4 construct: corresponding to amino acids 1-169, produced at Accelegan Inc; biotin (biotinylated); purchased Accelegan Inc
T4 sequence (P01116 1-169 isoform P01116-2 G12A): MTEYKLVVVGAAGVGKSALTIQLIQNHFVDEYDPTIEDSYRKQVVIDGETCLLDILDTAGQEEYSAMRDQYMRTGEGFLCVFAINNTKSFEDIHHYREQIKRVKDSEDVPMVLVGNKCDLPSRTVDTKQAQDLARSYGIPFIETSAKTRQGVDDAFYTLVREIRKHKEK
Protocol: as §1, §2

[3] = tested on: KRas-mediated Phosphorylation of ERK in AsPC-1 cells; test: HTRF pERK assay, AsPC-1 cells; assay type: cell-based; details: Homo sapiens, ASPC1, 3 hrs compound incubation, read-out: Inhibition (HTRF IC50 nM) of KRas-mediated Phosphorylation of ERK, AsPC-1
Protocol: as §3, §4, §5

KRas^G12D = target: T5, KRas^G12D (Homo sapiens, UniProt P01116, G12D); test: KRas Binding Assay (TR-FRET displacement), KRas G12D; details: TR-FRET tracer displacement
T5 construct: corresponding to amino acids 1-169, produced at Accelegan Inc; biotin (biotinylated); purchased Accelegan Inc
T5 sequence (P01116 1-169 isoform P01116-2 G12D): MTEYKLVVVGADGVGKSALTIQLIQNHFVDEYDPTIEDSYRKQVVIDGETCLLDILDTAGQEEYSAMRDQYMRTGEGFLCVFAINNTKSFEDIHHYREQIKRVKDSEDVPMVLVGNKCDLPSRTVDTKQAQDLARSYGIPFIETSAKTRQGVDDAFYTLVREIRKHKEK
Protocol: as §1, §2

KRas^G12R = target: T6, KRas^G12R (Homo sapiens, UniProt P01116, G12R); test: KRas Binding Assay (TR-FRET displacement), KRas G12R; details: TR-FRET tracer displacement
T6 construct: corresponding to amino acids 1-169, produced at Accelegan Inc; biotin (biotinylated); purchased Accelegan Inc
T6 sequence (P01116 1-169 isoform P01116-2 G12R): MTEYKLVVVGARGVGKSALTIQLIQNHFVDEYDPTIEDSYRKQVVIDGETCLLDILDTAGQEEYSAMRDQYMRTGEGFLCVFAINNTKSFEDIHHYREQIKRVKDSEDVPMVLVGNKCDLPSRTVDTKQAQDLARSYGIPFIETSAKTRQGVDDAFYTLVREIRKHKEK
Protocol: as §1, §2

KRas^G12V = target: T7, KRas^G12V (Homo sapiens, UniProt P01116, G12V); test: KRas Binding Assay (TR-FRET displacement), KRas G12V; details: TR-FRET tracer displacement
T7 construct: corresponding to amino acids 1-169, produced at Accelegan Inc; biotin (biotinylated); purchased Accelegan Inc
T7 sequence (P01116 1-169 isoform P01116-2 G12V): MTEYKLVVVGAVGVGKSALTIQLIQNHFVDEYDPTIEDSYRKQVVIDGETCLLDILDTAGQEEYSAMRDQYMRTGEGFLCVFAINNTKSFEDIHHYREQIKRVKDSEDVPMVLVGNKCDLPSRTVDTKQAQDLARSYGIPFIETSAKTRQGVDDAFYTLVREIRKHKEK
Protocol: as §1, §2

[4] = tested on: KRas-mediated Phosphorylation of ERK in MKN1 cells; test: HTRF pERK assay, MKN1 cells; assay type: cell-based; details: Homo sapiens, MKN-1, 3 hour compound incubation, read-out: Inhibition (HTRF IC50 nM) of KRas-mediated Phosphorylation of ERK, MKN1
Protocol: Cisbio HTRF Advanced pERK Assay Catalog #64AERPEH • Cells: MKN1, PSN1
as §3

KRas^G12C = target: T8, KRas^G12C (Homo sapiens, UniProt P01116, G12C); test: KRas Binding Assay (TR-FRET displacement), KRas G12C; details: TR-FRET tracer displacement
T8 construct: corresponding to amino acids 1-169, produced at Accelegan Inc; biotin (biotinylated); purchased Accelegan Inc
T8 sequence (P01116 1-169 isoform P01116-2 G12C): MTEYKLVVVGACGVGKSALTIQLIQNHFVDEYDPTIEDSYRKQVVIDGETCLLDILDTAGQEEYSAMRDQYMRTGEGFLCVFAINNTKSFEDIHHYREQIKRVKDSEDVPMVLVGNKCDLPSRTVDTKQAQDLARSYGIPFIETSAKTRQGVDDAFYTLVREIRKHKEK
Protocol: as §1, §2

KRas^WT = target: T9, KRas^WT (Homo sapiens, UniProt P01116); test: KRas Binding Assay (TR-FRET displacement), KRas WT; details: TR-FRET tracer displacement
T9 construct: corresponding to amino acids 1-169, produced at Accelegan Inc; biotin (biotinylated); purchased Accelegan Inc
T9 sequence (P01116 1-169 isoform P01116-2): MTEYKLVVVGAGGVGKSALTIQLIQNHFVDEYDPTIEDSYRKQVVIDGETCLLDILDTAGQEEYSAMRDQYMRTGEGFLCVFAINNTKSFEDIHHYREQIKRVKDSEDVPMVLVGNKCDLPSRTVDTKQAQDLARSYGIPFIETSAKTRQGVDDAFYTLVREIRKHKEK
Protocol: as §1, §2

T1 sequence (P01116 1-169 isoform P01116-2 G12S): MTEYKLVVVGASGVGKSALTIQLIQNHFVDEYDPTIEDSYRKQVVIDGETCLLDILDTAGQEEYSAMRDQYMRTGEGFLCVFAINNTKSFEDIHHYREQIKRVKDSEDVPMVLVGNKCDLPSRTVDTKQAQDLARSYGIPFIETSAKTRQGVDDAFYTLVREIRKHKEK

Compound | IC50 (KRas^G12S) | IC50 [1] | IC50 [2] | IC50 (KRas^Q61H) | IC50 (KRas^G13D) | IC50 (KRas^G12A) | IC50 [3] | IC50 (KRas^G12D) | IC50 (KRas^G12R) | IC50 (KRas^G12V) | IC50 [4] | IC50 (KRas^G12C) | IC50 (KRas^WT)
C[C@H](Oc1nc(-c2noc(C3(C)CCCc4sc(N)c(C#N)c43)n2)cc(N2CCC[C@@](C)(O)C2)n1)[C@@H]1CCCN1C (stereo partly drawn) [Example 1, 2-amino-4-(3-(6-((R)-3-hydroxy-3-methylpiperidin-1-yl)-2-((S)-1-((S)-1-methylpyrrolidin-2-yl)ethoxy)pyrimidin-4-yl)-1,2,4-oxadiazol-5-yl)-4-methyl-4,5,6,7-tetrahydrobenzo[b]thiophene-3-carbonitrile] | 90 nM | > 10000 nM | 6440 nM | 117 nM | 74 nM | 82 nM | 3740 nM | 42 nM | 28 nM | 43 nM | 593 nM | 106 nM | 22 nM
C[C@H](Oc1nc(-c2noc(C3(C)CCCc4sc(N)c(C#N)c43)n2)cc(N2C[C@H]3CC[C@@H](C2)N3)n1)[C@@H]1CCCN1C (stereo partly drawn) [Example 3, 4-(3-(6-((1R,5S)-3,8-diazabicyclo[3.2.1]octan-3-yl)-2-((S)-1-((S)-1-methylpyrrolidin-2-yl)ethoxy)pyrimidin-4-yl)-1,2,4-oxadiazol-5-yl)-2-amino-4-methyl-4,5,6,7-tetrahydrobenzo[b]thiophene-3-carbonitrile] | 912 nM | > 10000 nM | > 10000 nM | 656 nM | 315 nM | 879 nM | 5940 nM | 18 nM | 728 nM | 767 nM | > 10000 nM | 1060 nM | 195 nM
